Experimental data reported in patent US8703792B2, “C-1 analogs of pancratistatin and 7-deoxypancratistatin and processes for their preparation” (Brock University, priority 2008, dated 2014).
≈ marks a conversion by molar mass, not a printed value. Entries after “also recorded” stand apart in the source; their conditions may differ.

How the values were obtained:
[1] = system: Human non-small cell lung cancer line NCI-H460; assay: MTT assay, lung-NSC NCI-H460; type: cell-based; conditions: 48 hrs, read-out: Inhibitory Activities: IC50, lung-NSC NCl-H460
Experimental: (§1) Human non-small cell lung cancer line NCI-H460 (ATCC # HTB-177) and human pancreatic adenocarcinoma cancer cell line BxPC-3 (ATCC # CRL-1687) were cultured in RPMI-1640 medium supplemented with 10% fetal bovine serum (FBS) (Gibco, Carlsbad, Calif.), 100 mg/L penicillin G and 100 mg/L streptomycin and (Cellgro, Manassas, Va.). Human prostate carcinoma cells DU-145 (ATCC # HTB-81) were cultured in Dulbecco's modified Eagle Medium (Cellgro) supplemented with 10% FBS, 100 mg/L penicillin G and 100 mg/L streptomycin. Human mammary carcinoma cells MCF-7 (ATCC # HTB-22) were cultured using Dulbecco's modified Eagle Medium supplemented with 10% FBS, 100 mg/L penicillin G, 100 mg/L streptomycin, 1.0 mM Glutamax and 1.0 mM sodium pyruvate, (Gibco).
(§2) In addition, the BxPC-3, […], DU-145 and MCF-7 lines were assessed by seeding 4×10^3 cells per well into microplates. The cells were grown for 24 hrs before treatment at concentrations ranging from 0.01 to 10 μM and incubated for 48 hrs. MTT reagent (5 mg/mL, MP Biomedical, Solon, Ohio) was added to each well and incubated further for 2 hrs. The resulting formazan crystals were dissolved in DMSO and the OD was determined at a wavelength of 490 nm. The experiments were repeated at least twice for each compound per cell line. Cells treated with 0.1% DMSO were used as a control.

colon KM20L2 = assay: Cancer cell line growth inhibition, colon KM20L2; type: cell-based; conditions: Homo sapiens, KM-20L2; read-out: Inhibitory Activities: IC50, colon KM20L2
[2] = system: Human neuroblastoma (SH-SY5Y) cell line; assay: MTT assay, neuroblastoma SH-SY5Y; type: cell-based; conditions: read-out: Inhibitory Activities: IC50, neuroblastoma Shsy5y
Experimental: (§3) The Human neuroblastoma (SH-SY5Y) and B-cell leukemia (Jurkat) cell lines were purchased from ATCC (Manassas, Va.). Cells were maintained and grown at 37° C., 95% humidity and 5% CO2. Jurkat cells were grown with RPMI-1640 media (Sigma-Aldrich, Oakville, ON, Canada) supplemented with 10% fetal bovine serum (FBS) and 10 mg/ml Gentamycin (Gibco BRL, Mississauga, ON, Canada). SH-SY5Y cells were grown with Dulbecco's Modified Eagles Medium (DMEM) HAM F12 (Sigma-Aldrich), supplemented with 2 mM L-Glutamine, 10 mg/ml Gentamycin, and 10% FBS. Normal Human Fibroblasts (NHFs) obtained from Coriell Institute for Medical Research (New Jersey, USA) were cultured in Earle's Minimum Essential Medium (MEME) (Sigma Chemical Company, Mississauga, Ontario, Canada) completed with 15% fetal bovine serum, 2 mM L-Glutamine, 10 mg/ml Gentamycin, 1.5 g/l sodium bicarbonate, 1% vitamins, and essential (2%) and non-essential amino acids (1%) (Gibco BRL, VWR, Mississauga, ON, Canada).
(§4) To evaluate the cytotoxic effects of the C-1 derivatives of 7-deoxypancratistatin, mitochondrial dehydrogenase activities were measured. Jurkat and SH-SY5Y cells were grown and treated for 24, 48, and 72 hrs. Cells were treated with concentrations ranging from 0.25 to 10 μM of each derivative dissolved in DMSO Similarly, ncPBMCs and NHFs were treated to assess the effects of the C-1 derivatives on non-cancerous cells.

leukemia P388 = assay: Cancer cell line growth inhibition, leukemia P388; type: cell-based, murine; conditions: Mus musculus, read-out: Inhibitory Activities: IC50, leukemia P388
[3] = system: human pancreatic adenocarcinoma cancer cell line BxPC-3; assay: MTT assay, pancreas BxPC-3; type: cell-based; conditions: 48 hrs, read-out: Inhibitory Activities: IC50, pancreas BxPC-3
Experimental: as §1, §2

CNS SF-268 = assay: Cancer cell line growth inhibition, CNS SF-268; type: cell-based; conditions: Homo sapiens, read-out: Inhibitory Activities: IC50, CNS SF-268
[4] = system: B-cell leukemia (Jurkat) cell line; assay: MTT assay, leukemia Jurkat; type: cell-based; conditions: Homo sapiens, read-out: Inhibitory Activities: IC50, leukemia Jurkat
Experimental: as §3, §4

[5] = system: Human mammary carcinoma cells MCF-7; assay: MTT assay, breast MCF-7; type: cell-based; conditions: MCF7, 48 hrs, read-out: Inhibitory Activities: IC50, breast MCF-7
Experimental: as §1, §2

[6] = system: Human prostate carcinoma cells DU-145; assay: MTT assay, prostate DU-145; type: cell-based; conditions: 48 hrs, read-out: Inhibitory Activities: IC50, prostate DU-145
Experimental: as §1, §2

SH-SY5Y cells = assay: Apoptosis induction (Hoechst staining, Annexin-V binding) in SH-SY5Y cells; type: cell-based, human; conditions: for Apoptotic morphology: 72 hours treatment, Hoechst staining and Annexin-V binding; for EC50: Homo sapiens, 72 hrs exposure, Hoechst staining, read-out: effective dose at which 50% of cells were apoptotic (ED50)
Experimental: as §3
(§5) Nuclear morphology was visualized using a final concentration of 10 μM of Hoechst 33342 dye (Molecular Probes, Eugene, Oreg., USA). Phosphatidyl serine flipping, (an apoptotic biochemical marker) was visualized with Annexin-V-FITC binding assay as per manufacturer's protocol (Molecular Probes, Eugene Oreg., USA). […] Apoptotic cells were expressed as a percentage of the total number of cells counted. Standard error was calculated from at least 3 separate experiments.

[7] = system: normal human fibroblasts (NHFs); assay: Apoptosis induction (Hoechst staining) in normal human fibroblasts; type: cell-based
Experimental: as §3
To evaluate the cytotoxic effects of the C-1 derivatives of 7-deoxypancratistatin, mitochondrial dehydrogenase activities were measured. […]
Nuclear morphology was visualized using a final concentration of 10 μM of Hoechst 33342 dye (Molecular Probes, Eugene, Oreg., USA). […] Apoptotic cells were expressed as a percentage of the total number of cells counted. Standard error was calculated from at least 3 separate experiments.

Jurkat cells = assay: Apoptosis induction (Hoechst staining, Annexin-V binding) in Jurkat cells; type: cell-based, human; conditions: for Apoptotic morphology: 72 hours treatment, Hoechst staining and Annexin-V binding; for EC50: Homo sapiens, 72 hrs exposure, Hoechst staining, read-out: effective dose at which 50% of cells were apoptotic (ED50)
Experimental: as §3, §5

[8] = system: non-cancerous peripheral blood mononuclear cells (ncPBMC); assay: Apoptosis induction (Hoechst staining) in non-cancerous peripheral blood mononuclear cells; type: cell-based, human; conditions: peripheral blood mononuclear cells from healthy volunteers
Excerpt: Peripheral blood was obtained from healthy non-smoking volunteers aged 25-50 years upon written and informed consent (University of Windsor REB #04-147). Whole blood samples were collected in BD Vacutainer™ Cell Preparation Tube and mononuclear cells were separated by density gradient centrifugation. The isolated cells were maintained in RPMI 1640 media supplemented and maintained as was the Jurkat culture.
as §4, §5

Row | melting point | SMILES | IC50 [1] | IC50 (colon KM20L2) | IC50 [2] | IC50 (leukemia P388) | IC50 [3] | IC50 (CNS SF-268) | IC50 [4] | IC50 [5] | IC50 [6] | Apoptotic morphology (SH-SY5Y cells) | EC50 (SH-SY5Y cells) | induction of apoptosis in non-cancerous cells [7] | Apoptotic morphology (Jurkat cells) | EC50 (Jurkat cells) | induction of apoptosis in non-cancerous cells [8]
1 | > 200 °C | COC(=O)[C@H]1[C@H](O)[C@@H](O)[C@@H](O)[C@@H]2NC(=O)c3cc4c(cc3[C@H]21)OCO4 | – | – | – | – | – | – | – | – | – | – | – | – | – | – | –
2 | – | O=C1N[C@H]2[C@H](O)[C@H](O)[C@@H](O)[C@H](O)[C@@H]2c2cc3c(c(O)c21)OCO3 [Compound 1, pancratistatin] | 0.048 µg/mL (≈ 0.148 µM) | 0.062 µg/mL (≈ 0.191 µM) | 0.163 µg/mL (≈ 0.501 µM) | 0.039 µg/mL (≈ 0.12 µM) | 0.028 µg/mL (≈ 0.0861 µM) | 0.017 µg/mL (≈ 0.0523 µM) | 0.163 µg/mL (≈ 0.501 µM) | 0.032 µg/mL (≈ 0.0984 µM) | 0.016 µg/mL (≈ 0.0492 µM) | – | – | – | – | – | –
3 | – | O=C1N[C@H]2[C@H](O)[C@H](O)[C@@H](O)[C@H](O)[C@@H]2c2cc3c(cc21)OCO3 [Compound 4, 7-deoxypancratistatin] | 0.29 µg/mL (≈ 0.938 µM) | 0.22 µg/mL (≈ 0.711 µM) | – | 0.44 µg/mL (≈ 1.42 µM) | – | – | – | – | – | – | – | – | – | – | –
4 | > 200 °C | CC(=O)OC[C@H]1[C@H](O)[C@@H](O)[C@@H](O)[C@@H]2NC(=O)c3cc4c(cc3[C@@H]12)OCO4 [I(c), ((1S,2S,3R,4S,4aR,11bR)-2,3,4-trihydroxy-6-oxo-1,2,3,4,4a,5,6,11b-octahydro-[1,3]dioxolo[4,5-j]phenanthridin-1-yl)methyl acetate] | 0.11 µg/mL | – | 0.183 µg/mL | – | 0.11 µg/mL | – | 0.183 µg/mL | 0.29 µg/mL | 0.37 µg/mL | Apoptotic morphology was observed | 500 nM | did not induce apoptosis; also recorded: does not induce apoptosis | Apoptotic morphology was observed | 500 nM | did not induce apoptosis; also recorded: does not induce apoptosis

Row | SMILES | melting point | IC50 [1] | IC50 (colon KM20L2) | IC50 [2] | IC50 (leukemia P388) | IC50 [3] | IC50 (CNS SF-268) | IC50 [4] | IC50 [5] | IC50 [6] | Apoptotic morphology (SH-SY5Y cells) | EC50 (SH-SY5Y cells) | induction of apoptosis in non-cancerous cells [7] | Apoptotic morphology (Jurkat cells) | EC50 (Jurkat cells) | induction of apoptosis in non-cancerous cells [8]
5 | O=C1N[C@H]2[C@H](O)[C@H](O)[C@@H](O)[C@H](CO)[C@@H]2c2cc3c(cc21)OCO3 [I(d), (1S,2S,3R,4S,4aR,11bR)-2,3,4-trihydroxy-1-(hydroxymethyl)-1,2,3,4,4a, 5-hexahydro-[1,3]dioxolo[4,5-j]phenanthridin-6(11bH)-one] | > 200 °C | 0.09 µg/mL (≈ 0.278 µM) | – | 1.61 µg/mL (≈ 5 µM) | – | 0.19 µg/mL (≈ 0.588 µM) | – | 1.61 µg/mL (≈ 5 µM) | 0.65 µg/mL (≈ 2.01 µM) | 0.26 µg/mL (≈ 0.804 µM) | Apoptotic morphology was observed | 10000 nM | – | Apoptotic morphology was observed | 1000 nM | –
